Results reported in patent publication US20020022718A1, “Genes identified as required for proliferation of E. coli” (priority 1999, published 2002).
Values after ≈ are worked out from the molar mass of the structure shown. Where two headings read alike, the source gives them in different places. Bridge positions count the residues as written; N and C are the ends. Square brackets hold non-standard residues; d marks the D form. Peptide text beside a SMILES is read from it. * marks the point of attachment. Ileψ(thiazoline)Cys = CC[C@H](C)[C@H](N)C1=N[C@H](C(=O)*)CS1; dOrn = NCCC[C@@H](N)C(=O)O

Test system: Bacterial cells expressing antisense nucleic acid complementary to rplL and rplJ (50S ribosomal subunit proteins)
Test: microbe, parasite or virus in culture
Type: cell-based, E. coli
Settings: for IC50: Escherichia coli; for Fold Increase in Sensitivity: IC50 −IPTG versus +IPTG (400 μM); for Sensitivity Increased?: significant decrease in IC50 in the presence of inducer IPTG
Method: Two-fold dilution series of antibiotics with a known mechanism of action are generated in the culture media selected for further assay development that has been supplemented with the antibiotic used to maintain the construct. A panel of test antibiotics known to act on different pathways is tested side by side with three to four wells being used to evaluate the effect of a test antibiotic on cell growth at each concentration. Equal volumes of test antibiotic and cells are added to the wells of a 384 well microtiter plate and mixed. Cells are prepared as described above using the media selected for assay development supplemented with the antibiotic required to maintain the antisense construct and are diluted 1:100 in identical media immediately prior to addition to the microtiter plate wells. For a control, cells are also added to several wells that contain the solvent used to dissolve the antibiotics but no antibiotic. Cell growth is monitored continuously by incubation at 37° C. in a microtiter plate reader monitoring the OD600 of the wells over an 18-hour period. […] A plot of percent inhibition against log[antibiotic concentration] allows extrapolation of an IC50 value for each antibiotic.
The culture media selected for use in the assay is supplemented with inducer at concentrations shown to inhibit cell growth by 50% and 80% as described above and the antibiotic used to maintain the construct. Two fold dilution series of the panel of test antibiotics used above are generated in each of these media. Several antibiotics are tested side by side with three to four wells being used to evaluate the effects of an antibiotic on cell growth at each concentration, in each media. Equal volumes of test antibiotic and cells are added to the wells of a 384 well microtiter plate and mixed. Cells are prepared as described above using the media selected for use in the assay supplemented with the antibiotic required to maintain the antisense construct. […] Immediately prior to addition to the microtiter plate wells, the cultures are adjusted to an appropriate OD600 (typically 0.002) by dilution into warm (37° C.) sterile media supplemented with identical concentrations of the inducer and antibiotic used to maintain the antisense construct. For a control, cells are also added to several wells that contain solvent used to dissolve test antibiotics but which contain no antibiotic. Cell growth is monitored continuously by incubation at 37° C. in a microtiter plate reader monitoring the OD600 of the wells over an 18-hour period. […] A plot of percent inhibition against log[antibiotic concentration] allows extrapolation of an IC50 value for each antibiotic.
Antibiotics of various chemical classes and modes of action were purchased from Sigma Chemicals (St. Louis, Mo.). Stock solutions were prepared by dissolving each antibiotic in an appropriate aqueous solution based on information provided by the manufacturer. The final working solution of each antibiotic contained no more than 0.2% (w/v) of any organic solvent. To determine their potency against a bacterial strain engineered for expression of an antisense complementary to a proliferation-required gene encoding 50S ribosomal protein, each antibiotic was serially diluted two or three fold in growth medium supplemented with the appropriate antibiotic for maintenance of the anti-sense construct. At least ten dilutions were prepared for each antibiotic. 25 μL aliquots of each dilution were transferred to discrete wells of a 384-well microplate (the assay plate) using a multi-channel pipette. Quadruplicate wells were used for each dilution of an antibiotic under each treatment condition (plus and minus inducer). Each assay plate contained twenty wells for cell growth controls (growth media replacing antibiotic), ten wells for each treatment (plus and minus inducer, in this example IPTG).

For `CC(=O)O[C@H]1C[C@@]2(C)[C@@H](C[C@@H](O)[C@H]3[C@@]4(C)CC[C@@H](O)[C@@H](C)[C@@H]4CC[C@@]32C)/C1=C(\CCC=C(C)C)C(=O)O` [Fusidic acid], the IC50 (read-out: IC50 (+IPTG)) was 0.641 µg/mL (≈ 1.24 µM), the IC50 (read-out: IC50 (−IPTG)) was 60 µg/mL (≈ 116 µM) and the “Fold Increase in Sensitivity” value was 94. The “Sensitivity Increased?” value was “Yes”.
With `CC1COc2c(N3CCN(C)CC3)c(F)cc3c(=O)c(C(=O)O)cn1c23` (centres unmarked) [Ofloxacin] the IC50 (read-out: IC50 (+IPTG)) was 0.0459 µg/mL (≈ 0.127 µM), the IC50 (read-out: IC50 (−IPTG)) was 0.0496 µg/mL (≈ 0.137 µM) and the “Fold Increase in Sensitivity” value was 1.
In the case of `CN[C@@H]1[C@H](O)[C@H](NC)[C@H]2O[C@@]3(O)C(=O)C[C@@H](C)O[C@H]3O[C@@H]2[C@H]1O` [Spectinomycin], the IC50 (read-out: IC50 (+IPTG)) is reported as less than 0.156 µg/mL, the IC50 (read-out: IC50 (−IPTG)) is reported as 18.1 µg/mL (≈ 54.3 µM) and the “Sensitivity Increased?” value is reported as “Yes”.
For `CO/N=C(\C(=O)N[C@@H]1C(=O)N2C(C(=O)O)=C(COC(C)=O)CS[C@H]12)c1csc(N)n1` [Cefotaxime], the IC50 (read-out: IC50 (+IPTG)) was 0.0242 µg/mL (≈ 0.053 µM), the IC50 (read-out: IC50 (−IPTG)) was 0.0243 µg/mL (≈ 0.0534 µM) and the “Fold Increase in Sensitivity” value was 1. The “Sensitivity Increased?” value was “No”.
For `C[C@H]1c2cccc(O)c2C(=O)C2=C(O)[C@]3(O)C(=O)C(C(N)=O)=C(O)[C@@H](N(C)C)[C@@H]3[C@@H](O)[C@@H]21` [Doxycycline], the IC50 (read-out: IC50 (+IPTG)) was 0.0278 µg/mL (≈ 0.0626 µM), the IC50 (read-out: IC50 (−IPTG)) was 0.413 µg/mL (≈ 0.929 µM) and the “Fold Increase in Sensitivity” value was 15.
In the case of `CN[C@H](CC(C)C)C(=O)N[C@H]1C(=O)N[C@@H](CC(N)=O)C(=O)N[C@H]2C(=O)N[C@H]3C(=O)N[C@H](C(=O)N[C@H](C(=O)O)c4cc(O)cc(O)c4-c4cc3ccc4O)[C@H](O)c3ccc(c(Cl)c3)Oc3cc2cc(c3O[C@@H]2O[C@H](CO)[C@@H](O)[C@H](O)[C@H]2O[C@H]2C[C@](C)(N)[C@H](O)[C@H](C)O2)Oc2ccc(cc2Cl)[C@H]1O` [Vancomycin], the IC50 (read-out: IC50 (+IPTG)) is reported as 72.5 µg/mL (≈ 50.1 µM), the IC50 (read-out: IC50 (−IPTG)) is reported as 145 µg/mL (≈ 100 µM) and the “Fold Increase in Sensitivity” value is reported as 2. For the same compound, the “Sensitivity Increased?” value was “No”.
In the case of `CC[C@H](C)[C@H](N)C1=N[C@H](C(=O)N[C@@H](CC(C)C)C(=O)N[C@H](CCC(=O)O)C(=O)N[C@H](C(=O)N[C@H]2CCCCNC(=O)[C@H](CC(N)=O)NC(=O)[C@@H](CC(=O)O)NC(=O)[C@H](Cc3cnc[nH]3)NC(=O)[C@@H](Cc3ccccc3)NC(=O)[C@H]([C@@H](C)CC)NC(=O)[C@@H](CCCN)NC2=O)[C@@H](C)CC)CS1` [Bacitracin] ({Ileψ(thiazoline)Cys}-L[dE]IK[dOrn]I[dF]H[dD]N; lactam 4-C), the IC50 (read-out: IC50 (+IPTG)) is reported as 4.68 µg/mL (≈ 3.29 µM), the IC50 (read-out: IC50 (−IPTG)) is reported as 4.08 µg/mL (≈ 2.87 µM) and the “Fold Increase in Sensitivity” value is reported as 1. The “Sensitivity Increased?” value was “No”.
With `CO[C@@]1(NC(=O)Cc2cccs2)C(=O)N2C(C(=O)O)=C(COC(N)=O)CS[C@@H]21` [Cefoxitin] the IC50 (read-out: IC50 (+IPTG)) was 2.48 µg/mL (≈ 5.81 µM), the IC50 (read-out: IC50 (−IPTG)) was 2.78 µg/mL (≈ 6.51 µM) and the “Fold Increase in Sensitivity” value was 1. The “Sensitivity Increased?” value was “No”.
